Results on 38 compounds are retold here after ChEMBL document CHEMBL1154113, “Synthesis, cannabinoid receptor affinity, molecular modeling studies and in vivo pharmacological evaluation of new substituted 1-aryl-5-(1H-pyrrol-1-yl)-1H-pyrazole-3-carboxamides. 2. Effect of the 3-carboxamide substituent on the affinity and selectivity profile” (Bioorg Med Chem, 2009).

As usually defined, the Ki is the dissociation constant of the complex between target and ligand, obtained from inhibition or displacement.

In one test the target is Cannabinoid receptor 1 (Homo sapiens, UniProt P21554). The test is described as follows: biochemical. Type of test: cell-based, HEK293.
Cannabinoid receptor 1, sequence (P21554 whole entry): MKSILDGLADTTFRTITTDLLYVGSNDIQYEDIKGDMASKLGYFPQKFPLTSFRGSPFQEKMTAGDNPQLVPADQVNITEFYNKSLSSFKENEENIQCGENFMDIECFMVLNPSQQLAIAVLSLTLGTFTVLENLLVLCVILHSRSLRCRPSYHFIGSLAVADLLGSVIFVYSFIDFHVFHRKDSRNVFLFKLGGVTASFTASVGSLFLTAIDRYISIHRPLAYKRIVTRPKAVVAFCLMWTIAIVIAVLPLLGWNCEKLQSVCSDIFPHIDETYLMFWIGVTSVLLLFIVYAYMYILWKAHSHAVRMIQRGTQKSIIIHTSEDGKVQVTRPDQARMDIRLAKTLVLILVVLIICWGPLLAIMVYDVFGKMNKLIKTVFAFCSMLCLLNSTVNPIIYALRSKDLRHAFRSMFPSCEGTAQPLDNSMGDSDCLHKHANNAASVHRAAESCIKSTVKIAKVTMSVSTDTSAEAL
In the next test the target is Cannabinoid receptor 2 (Homo sapiens, UniProt P34972). The test is described as follows: Displacement of [3H]CP-55940 from human recombinant CB2 receptor expressed in HEK cells. Type of test: cell-based, HEK293. (In general: Loss of bound radioactivity is the signal in a displacement assay; it reports binding, not function.)
Cannabinoid receptor 2, sequence (P34972 whole entry): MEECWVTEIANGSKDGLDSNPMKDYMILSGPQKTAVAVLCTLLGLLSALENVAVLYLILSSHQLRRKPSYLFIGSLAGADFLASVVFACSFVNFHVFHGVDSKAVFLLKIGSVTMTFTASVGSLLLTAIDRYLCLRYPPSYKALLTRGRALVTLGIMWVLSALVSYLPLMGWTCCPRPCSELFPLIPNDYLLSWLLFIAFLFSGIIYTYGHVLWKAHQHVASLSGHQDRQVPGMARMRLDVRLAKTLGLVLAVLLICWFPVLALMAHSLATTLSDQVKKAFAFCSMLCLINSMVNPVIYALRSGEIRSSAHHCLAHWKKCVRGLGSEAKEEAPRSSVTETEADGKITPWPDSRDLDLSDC
The species entered for the next test is Homo sapiens. The test is described as follows: Selectivity index, ratio of Ki for human recombinant CB2 receptor to Ki for human recombinant CB1 receptor.

Description for Cannabinoid receptor 1: Displacement of [3H]CP-55940 from human recombinant CB1 receptor expressed in HEK cells

Regarding `COc1cc(CNC(=O)c2nn(-c3ccc(F)cc3F)c(-n3c(C)ccc3C)c2C)c(Br)c(OC)c1OC`, the Ki was determined as 165 nM on Cannabinoid receptor 1 and 373 nM on Cannabinoid receptor 2. Besides, in the test filed under Homo sapiens, the Ratio Ki turned out to be 2.26.
On the same counts, the results for `Cc1c(C(=O)NC2CCCCCC2)nn(-c2ccc(Cl)c(Cl)c2)c1-n1c(C)ccc1C` are 12 nM, 4.2 nM and 0.35.
In the case of `Cc1c(C(=O)NC2CCCCC2)nn(-c2ccc(Cl)c(Cl)c2)c1-n1cccc1`, the Ratio Ki in the test filed under Homo sapiens was 0.3.
For the compound `Cc1c(C(=O)NCCc2ccc(Cl)c(Cl)c2)nn(-c2ccc(F)cc2F)c1-n1cccc1`, the results for the Ki at Cannabinoid receptor 1 and on Cannabinoid receptor 2 were 310 nM and 1290 nM, respectively. Besides, in the test listed under Homo sapiens, the Ratio Ki came to 4.16.
On the same counts, the results for `Cc1c(C(=O)NCCc2ccc(Cl)cc2Cl)nn(-c2ccc(F)cc2F)c1-n1cccc1` are 380 nM, 667 nM and 1.75.
Take `COc1ccc(CCNC(=O)c2nn(-c3ccc(Cl)cc3Cl)c(-n3cccc3)c2C)cc1Cl`: the Ki on Cannabinoid receptor 1 was 368 nM; on Cannabinoid receptor 2 it was 2890 nM. Also, in the test filed under Homo sapiens, the Ratio Ki came out at 7.84.
As for `Cc1c(C(=O)NC2CCCCCC2)nn(-c2ccc(Cl)cc2Cl)c1-n1c(C)ccc1C`, the Ki at Cannabinoid receptor 1 is 56 nM; at Cannabinoid receptor 2, 80 nM. Further, in the test filed under Homo sapiens, the Ratio Ki was 1.43.
For `Cc1c(C(=O)Nc2ccc(Cl)cc2)nn(-c2ccc(Cl)cc2Cl)c1-n1c(C)ccc1C`, in that order: 96 nM, more than 3940 nM and more than 41.
For `Cc1c(C(=O)NCCc2ccc(Cl)c(Cl)c2)nn(-c2ccc(Cl)cc2Cl)c1-n1c(C)ccc1C`, in that order: 117 nM, more than 3940 nM and more than 33.4.
In the case of `Cc1c(C(=O)NC2CCCC2)nn(-c2ccc(F)cc2F)c1-n1c(C)ccc1C`, the Ki at Cannabinoid receptor 1 turned out to be 840 nM; on Cannabinoid receptor 2, 900 nM. Besides, in the test listed under Homo sapiens, the Ratio Ki was found to be 1.07.
On the same counts, the results for `Cc1c(C(=O)NC2CCCC2)nn(-c2ccc(Cl)cc2Cl)c1-n1cccc1` are 84 nM, 170 nM and 2.02.
For `COc1ccc(CCNC(=O)c2nn(-c3ccc(F)cc3F)c(-n3c(C)ccc3C)c2C)cc1Cl`, in that order: 99 nM, more than 3940 nM and more than 39.8.
In the case of `COc1cc(CNC(=O)c2nn(-c3ccc(Cl)cc3Cl)c(-n3cccc3)c2C)c(Br)c(OC)c1OC`, the values for the inhibitory constant (Ki) on Cannabinoid receptor 1 and on Cannabinoid receptor 2 were 227 nM and 609 nM, respectively. Also, in the test listed under Homo sapiens, the Ratio Ki was 2.68.
On the same counts, the results for `Cc1c(C(=O)NCc2ccc(Cl)cc2)nn(-c2ccc(Cl)cc2Cl)c1-n1cccc1` are 140 nM, 940 nM and 6.71.
As for `COc1ccc(CCNC(=O)c2nn(-c3ccc(Cl)cc3Cl)c(-n3c(C)ccc3C)c2C)cc1Cl`, the Ki was 112 nM at Cannabinoid receptor 1 and 3480 nM at Cannabinoid receptor 2. Besides, the Ratio Ki in the test filed under Homo sapiens was 31.1.
On the same counts, the results for `Cc1c(C(=O)NC2CCCC2)nn(-c2ccc(F)cc2F)c1-n1cccc1` are 2400 nM, 1100 nM and 0.46.
On the same counts, the results for `Cc1c(C(=O)Nc2ccc(Cl)cc2)nn(-c2ccc(Cl)c(Cl)c2)c1-n1cccc1` are 1300 nM, 790 nM and 0.61.
On the same counts, the results for `Cc1c(C(=O)NCCc2ccc(Cl)cc2)nn(-c2ccc(Cl)cc2Cl)c1-n1c(C)ccc1C` are 30 nM, more than 3940 nM and more than 131.
In the case of `Cc1c(C(=O)NCc2ccc(Cl)cc2)nn(-c2ccc(F)cc2F)c1-n1c(C)ccc1C`, the figures for the Ki on Cannabinoid receptor 1 and at Cannabinoid receptor 2 were 56 nM and more than 3940 nM, respectively. Besides, the Ratio Ki in the test listed under Homo sapiens was more than 70.4.
On the same counts, the results for `Cc1c(C(=O)NCc2ccc(Cl)cc2)nn(-c2ccc(Cl)c(Cl)c2)c1-n1cccc1` are 70 nM, 100 nM and 1.43.
For `Cc1c(C(=O)NCc2ccc(Cl)cc2)nn(-c2ccc(Cl)cc2Cl)c1-n1c(C)ccc1C`, the inhibition constant (Ki) on Cannabinoid receptor 1 is 90 nM; at Cannabinoid receptor 2, more than 3940 nM. Moreover, in the test filed under Homo sapiens, the Ratio Ki was more than 43.8.
On the same counts, the results for `Cc1c(C(=O)NC23CC4CC(CC(C4)C2)C3)nn(-c2ccc(Cl)c(Cl)c2)c1-n1c(C)ccc1C` are 5.6 nM, 12 nM and 2.14.
On to `Cc1c(C(=O)NCCc2ccc(Cl)c(Cl)c2)nn(-c2ccc(Cl)cc2Cl)c1-n1cccc1`, for which the inhibition constant Ki at Cannabinoid receptor 1 is 157 nM; at Cannabinoid receptor 2, more than 3940 nM. In addition, the Ratio Ki in the test listed under Homo sapiens was more than 25.1.
On the same counts, the results for `Cc1c(C(=O)NC2CCCC2)nn(-c2ccc(Cl)c(Cl)c2)c1-n1c(C)ccc1C` are 36 nM, 12 nM and 0.33.
On the same counts, the results for `Cc1c(C(=O)NCCc2ccc(Cl)cc2Cl)nn(-c2ccc(Cl)cc2Cl)c1-n1cccc1` are 218 nM, more than 3940 nM and more than 18.1.
For `Cc1c(C(=O)NC2CCCC2)nn(-c2ccc(Cl)c(Cl)c2)c1-n1cccc1`, in that order: 50 nM, 12 nM and 0.24.
As to `Cc1c(C(=O)NC(C)c2ccccc2)nn(-c2ccc(Cl)c(Cl)c2)c1-n1c(C)ccc1C` (stereo not given), the inhibitory constant (Ki) at Cannabinoid receptor 1 turned out to be 80 nM; at Cannabinoid receptor 2, 5.7 nM. Further, the Ratio Ki in the test filed under Homo sapiens came to 0.071.
`Cc1c(C(=O)NCc2ccc(Cl)cc2)nn(-c2ccc(Cl)c(Cl)c2)c1-n1c(C)ccc1C`: the Ki at Cannabinoid receptor 1 stood at 100 nM; on Cannabinoid receptor 2, 790 nM. Also, the Ratio Ki in the test listed under Homo sapiens was found to be 7.9.
Consider `Cc1c(C(=O)Nc2ccc(Cl)cc2)nn(-c2ccc(Cl)c(Cl)c2)c1-n1c(C)ccc1C`, for which the results for the Ki on Cannabinoid receptor 1 and at Cannabinoid receptor 2 were more than 2820 nM and more than 3940 nM, respectively.
`Cc1c(C(=O)NCc2ccc(Cl)cc2)nn(-c2ccc(F)cc2F)c1-n1cccc1`: the Ki amounted to 340 nM on Cannabinoid receptor 1 and 3400 nM at Cannabinoid receptor 2. Also, in the test listed under Homo sapiens, the Ratio Ki was determined as 10.
For `COc1ccc(CCNC(=O)c2nn(-c3ccc(F)cc3F)c(-n3cccc3)c2C)cc1Cl`, in that order: 948 nM, 1940 nM and 2.05.
Take `Cc1c(C(=O)NCCc2ccc(Cl)cc2)nn(-c2ccc(Cl)cc2Cl)c1-n1cccc1`: the inhibitory constant (Ki) was 70 nM at Cannabinoid receptor 1 and more than 3940 nM at Cannabinoid receptor 2. Also, the Ratio Ki in the test filed under Homo sapiens was more than 56.2.
On the same counts, the results for `Cc1c(C(=O)NCCc2ccc(Cl)cc2)nn(-c2ccc(F)cc2F)c1-n1cccc1` are 80 nM, more than 3940 nM and more than 49.2.
For `Cc1c(C(=O)Nc2ccc(Cl)cc2)nn(-c2ccc(Cl)cc2Cl)c1-n1cccc1`, in that order: 120 nM, 80 nM and 0.67.
As for `Cc1c(C(=O)NC2CCCCCC2)nn(-c2ccc(Cl)cc2Cl)c1-n1cccc1`, the inhibitory constant (Ki) at Cannabinoid receptor 1 and at Cannabinoid receptor 2 was 20 nM each time. Besides, in the test listed under Homo sapiens, the Ratio Ki was found to be 1.
Take `Cc1c(C(=O)NCCc2ccc(Cl)cc2Cl)nn(-c2ccc(Cl)cc2Cl)c1-n1c(C)ccc1C`: the Ki at Cannabinoid receptor 1 is 156 nM; on Cannabinoid receptor 2, more than 3940 nM. The Ratio Ki in the test listed under Homo sapiens is more than 25.2.
Consider `Cc1c(C(=O)N[C@@H](C)C2CCCCC2)nn(-c2ccc(Cl)c(Cl)c2)c1-n1cccc1`, for which the Ki was determined as 3.4 nM at Cannabinoid receptor 1 and 2.4 nM on Cannabinoid receptor 2. For the same compound, the Ratio Ki in the test filed under Homo sapiens is 0.71.
In the case of `Cc1c(C(=O)NC(c2ccccc2)c2ccc(Cl)cc2)nn(-c2ccc(Cl)c(Cl)c2)c1-n1c(C)ccc1C` (stereo not given), the figures for the inhibitory constant (Ki) on Cannabinoid receptor 1 and on Cannabinoid receptor 2 were more than 2820 nM and more than 3940 nM, respectively.
